The target of one data set is 5-HT transporter (Rattus norvegicus, UniProt P31652). The data set is described as follows: Rat Brain 3H-Paroxetine Binding Assay (RB 5HT Transporter). Conditions: rat frontal cortical membranes; 3H-paroxetine 0.1 nM, 60 min, 25° C. From the text:
Rat Brain ^3H-Paroxetine Binding Assay (RB 5HT Transporter):
This assay was used to determine a compound's affinity of the 5-HT transporter.
All reactions were terminated by the addition of ice cold Tris buffer followed by rapid filtration using a Tom Tech filtration device to separate bound from free ^3H-paroxetine.

In the next data set the target is T1, human 5-HT1A receptors (Homo sapiens, UniProt P08908).
T1 construct: expressed in transfected cells; host or cells: CHO cells
T1 sequence (P08908 1-422): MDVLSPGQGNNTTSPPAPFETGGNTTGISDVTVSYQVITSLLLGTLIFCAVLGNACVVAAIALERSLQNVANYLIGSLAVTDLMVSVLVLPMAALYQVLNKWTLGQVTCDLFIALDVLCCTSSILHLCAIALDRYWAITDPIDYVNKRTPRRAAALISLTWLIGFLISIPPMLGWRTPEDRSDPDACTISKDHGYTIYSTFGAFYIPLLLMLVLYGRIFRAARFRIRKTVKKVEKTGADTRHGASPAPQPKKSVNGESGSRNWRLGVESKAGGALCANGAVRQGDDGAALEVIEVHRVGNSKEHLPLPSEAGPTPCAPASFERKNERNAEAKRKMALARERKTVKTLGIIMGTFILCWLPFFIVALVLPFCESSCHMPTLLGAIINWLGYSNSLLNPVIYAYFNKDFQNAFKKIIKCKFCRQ
As to the kind of experiment: displacement of [3H] 8-OH-DPAT from the 5-HT1A serotonin receptor. Conditions: CHO cells stably transfected with human 5-HT1A receptors. It is filed as binding. Background: Loss of bound radioactivity is the signal in a displacement assay; it reports binding, not function.

Molecules are shown by their SMILES. Counter-ions that a name gives are not always drawn.

Sequence of 5-HT transporter (P31652 whole entry): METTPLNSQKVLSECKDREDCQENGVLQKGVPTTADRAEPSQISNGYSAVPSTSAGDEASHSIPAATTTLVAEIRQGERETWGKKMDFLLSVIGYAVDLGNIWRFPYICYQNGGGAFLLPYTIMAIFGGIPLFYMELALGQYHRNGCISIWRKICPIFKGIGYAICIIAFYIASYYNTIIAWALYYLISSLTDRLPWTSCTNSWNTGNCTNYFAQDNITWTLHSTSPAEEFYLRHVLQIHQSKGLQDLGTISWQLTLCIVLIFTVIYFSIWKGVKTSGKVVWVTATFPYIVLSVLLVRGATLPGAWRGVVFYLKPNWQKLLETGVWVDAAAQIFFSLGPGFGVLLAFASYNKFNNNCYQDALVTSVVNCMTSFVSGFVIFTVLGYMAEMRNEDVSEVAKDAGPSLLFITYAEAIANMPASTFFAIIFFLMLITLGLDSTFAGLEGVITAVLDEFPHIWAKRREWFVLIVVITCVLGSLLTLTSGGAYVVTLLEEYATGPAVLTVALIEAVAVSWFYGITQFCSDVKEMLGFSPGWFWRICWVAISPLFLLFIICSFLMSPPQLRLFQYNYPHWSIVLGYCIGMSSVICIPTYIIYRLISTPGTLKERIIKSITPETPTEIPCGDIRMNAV

As for `COc1cc(N2CCN(CCc3coc4ccc(F)cc34)CC2)c2ncccc2c1` (as salt: HCl) [Compound 16, 8-{4-[2-(5-fluoro-1-benzofuran-3-yl)ethyl]-1-piperazinyl}-6-methoxy-quinoline], the melting point turned out to be 80 °C.

In turn, `Fc1cc(N2CCN(CCc3coc4ccc(F)cc34)CC2)c2ncccc2c1` (as salt: HCl) [Compound 17, 8-{4-[2-(5-fluoro-1-benzofuran-3-yl)ethyl]-1-piperazinyl}-6-fluoro-quinoline] showed a melting point of 55 °C.

The molecule `COc1cccc2c(CCN3CCN(c4cc(Cl)cc5cccnc45)CC3)coc12` (as salt: HCl) [Compound 20, 8-{4-[2-(7-methoxy-1-benzofuran-3-yl)ethyl]-1-piperazinyl}-6-chloro-quinoline] yielded a melting point of 248 °C.

In turn, `COc1cccc2c(C(C)CN3CCN(c4cccc5cccnc45)CC3)coc12` (centres unmarked) (as salt: HCl) [Compound 31, 8-{4-[2-(7-methoxy-1-benzofuran-3-yl)propyl]-1-piperazinyl}quinoline] showed a melting point of 192 °C.

`COc1cccc2c(C(C)CN3CCN(c4cc(Cl)cc5cccnc45)CC3)coc12` (centres unmarked) (as salt: HCl) [Compound 33, 8-{4-[2-(7-methoxy-1-benzofuran-3-yl)propyl]-1-piperazinyl}-6-chloro-quinoline] displayed a melting point of 55 to 58 °C.

Turning to `COc1ccc2occ(CCN3CCN(c4cccc5cccnc45)CC3)c2c1` [Compound 21, 8-{4-[2-(5-methoxy-1-benzofuran-3-yl)ethyl]-1-piperazinyl}-quinoline], the melting point was 78 °C. The same molecule displayed a Ki at 5-HT transporter of 7.25 nM. The same molecule came in with a Ki at human 5-HT1A receptors of 2.83 nM.

Turning to `COc1ccc2occ(CCN3CCN(c4cc(Cl)cc5cccnc45)CC3)c2c1` [Compound 22, 8-{4-[2-(5-methoxy-1-benzofuran-3-yl)ethyl]-1-piperazinyl}-6-chloro-quinoline], the melting point is 72 °C. The molecule also yielded a Ki on 5-HT transporter of 2 nM. Also, the affinity on human 5-HT1A receptors, expressed as Ki, was 2.69 nM.

Turning to `Fc1ccc2scc([C@H]3CC[C@H](N4CCN(c5ccc(Cl)c6cccnc56)CC4)CC3)c2c1` [Compound 52, 5-chloro-8-{4-[4-trans(5-fluoro-1-benzothien-3-yl)cyclohexyl]piperazin-1-yl}quinoline], the melting point is 195 to 197 °C. This molecule returned a Ki at 5-HT transporter of 48 nM.

`COc1cccc2c1occ2[C@H]1CC[C@@H](N2CCN(c3ccc(Cl)c4cccnc34)CC2)CC1` [Compound 63, 5-chloro-8-{4-[4-cis(7-methoxy-1-benzofuran-3-yl)cyclohexyl]piperazin-1-yl}quinoline]: the Ki worked out at 87 nM at 5-HT transporter and 0.92 nM on human 5-HT1A receptors.

For `COc1cccc2c1occ2[C@H]1CC[C@H](N2CCN(c3ccc(Cl)c4cccnc34)CC2)CC1` [Compound 64, 5-chloro-8-{4-[4-trans(7-methoxy-1-benzofuran-3-yl)cyclohexyl]piperazin-1-yl}quinoline], the Ki at 5-HT transporter worked out at 49 nM; at human 5-HT1A receptors, 18.7 nM.

Consider `COc1ccc2occ([C@H]3CC[C@@H](N4CCN(c5ccc(Cl)c6cccnc56)CC4)CC3)c2c1` [Compound 65, 5-chloro-8-{4-[4-cis(5-methoxy-1-benzofuran-3-yl)cyclohexyl]piperazin-1-yl}quinoline], for which the results for the Ki at 5-HT transporter and on human 5-HT1A receptors were 53 nM and 10.1 nM, respectively.

As for `COc1ccc2occ([C@H]3CC[C@H](N4CCN(c5ccc(Cl)c6cccnc56)CC4)CC3)c2c1` [Compound 66, 5-chloro-8-{4-[4-trans(5-methoxy-1-benzofuran-3-yl)cyclohexyl]piperazin-1-yl}quinoline], the inhibition constant (Ki) is 89 nM at 5-HT transporter and 1.99 nM at human 5-HT1A receptors.

Molecule `COc1cc(N2CCN([C@H]3CC[C@H](c4cc5ccccc5s4)CC3)CC2)c2ncccc2c1` [Compound 71] came in with a melting point of 193 to 194 °C. Further, the Ki at human 5-HT1A receptors came out at 162 nM.

A word on the melting point: it is the temperature of the solid-liquid transition. By Ki is commonly meant a measure of affinity in units of concentration, obtained from inhibition or displacement. High values mean a looser hold on the target, low ones a stronger hold on the target.

Values taken from patent US7276603B2, “Benzofuranyl-and benzothienyl-piperazinyl quinolines and methods of their use” (Wyeth, priority 2003, dated 2007).
